23 compounds from ChEMBL document CHEMBL5338738, “Discovery of Novel Sesquiterpene Lactone Derivatives as Potent PKM2 Activators for the Treatment of Ulcerative Colitis” (J Med Chem, 2023) can be followed below.

Activity calls are given as the source filed them. No cut-off for these calls is given here.

In one assay the test system is T-cell. Nature of the assay: Immunomodulatory activity in C57BL/6 mouse mesenteric lymph node T cells assessed as inhibition of concanavalin A stimulated T-cell proliferation incubated for 68 hrs by CCK-8 assay. The assay is classed as functional, cell-based. The note with it: C57BL/6, T-cell. A general note: Tetrazolium assays rely on reduction of a dye to a coloured formazan, in cell work by metabolically active cells.

Assay [1] deals with T1, Pyruvate kinase PKM (Homo sapiens, UniProt P14618). Nature of the assay: Activation of PKM2 (unknown origin) at 3 uM incubated for 30 mins relative to control.
Target sequence in this assay (P14618 2-531 limits assumed): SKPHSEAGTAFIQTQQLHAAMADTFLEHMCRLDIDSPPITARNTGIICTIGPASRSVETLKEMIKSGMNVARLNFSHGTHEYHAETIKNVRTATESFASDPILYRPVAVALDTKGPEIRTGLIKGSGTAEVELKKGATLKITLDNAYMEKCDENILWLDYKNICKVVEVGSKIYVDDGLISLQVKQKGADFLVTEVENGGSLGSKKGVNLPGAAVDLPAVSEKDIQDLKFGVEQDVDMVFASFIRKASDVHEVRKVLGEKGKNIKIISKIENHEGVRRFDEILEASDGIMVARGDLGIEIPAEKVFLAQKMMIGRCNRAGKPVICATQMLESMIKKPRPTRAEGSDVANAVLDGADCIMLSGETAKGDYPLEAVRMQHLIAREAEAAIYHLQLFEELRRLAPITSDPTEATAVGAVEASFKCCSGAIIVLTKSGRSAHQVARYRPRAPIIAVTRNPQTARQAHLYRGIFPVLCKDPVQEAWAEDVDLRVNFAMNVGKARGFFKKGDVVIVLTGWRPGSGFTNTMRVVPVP
The target of assay [2] is T1, Pyruvate kinase PKM. In words: Activation of PKM2 (unknown origin) incubated for 30 mins.
Target sequence in this assay (P14618 whole entry): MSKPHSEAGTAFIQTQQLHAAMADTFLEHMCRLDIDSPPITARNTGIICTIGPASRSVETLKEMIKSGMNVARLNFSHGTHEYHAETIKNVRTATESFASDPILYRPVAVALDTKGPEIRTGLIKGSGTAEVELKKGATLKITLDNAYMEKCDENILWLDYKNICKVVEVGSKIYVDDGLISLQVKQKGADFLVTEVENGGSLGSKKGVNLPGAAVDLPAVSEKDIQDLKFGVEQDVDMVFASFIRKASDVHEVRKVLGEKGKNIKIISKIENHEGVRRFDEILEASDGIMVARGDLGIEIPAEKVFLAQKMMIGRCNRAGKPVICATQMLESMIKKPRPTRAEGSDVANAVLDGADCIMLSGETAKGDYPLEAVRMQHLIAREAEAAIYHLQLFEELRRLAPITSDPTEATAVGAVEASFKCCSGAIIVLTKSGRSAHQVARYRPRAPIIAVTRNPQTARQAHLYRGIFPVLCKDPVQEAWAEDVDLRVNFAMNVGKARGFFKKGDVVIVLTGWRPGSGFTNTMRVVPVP

Consider `C=C1C(=O)O[C@@H]2/C=C(\C)CC/C=C(/COC(=O)[C@@H](N)C(C)C)CC[C@@H]12`, for which, in the assay with T-cell, the half-maximal inhibitory concentration (IC50) is 880 nM.

With `C/C1=C\[C@H]2OC(=O)[C@@H](C)[C@@H]2CC/C(C)=C/CC1` [DIHYDRO COSTUNOLIDE], in the assay on T-cell, the IC50 is 15000 nM. Moreover, the outcome at Pyruvate kinase PKM [1] was inactive.

`C=C1CC[C@@H](O)[C@]2(C)CC[C@H]3C(=C)C(=O)O[C@@H]3[C@@H]12` [REYNOSIN]: the 50% inhibitory concentration (IC50) in the assay with T-cell was found to be 6200 nM. In addition, at Pyruvate kinase PKM [1], the result was inactive.

As to `C=C1C(=O)O[C@@H]2/C=C(\C)CC/C=C(/CBr)CC[C@@H]12`, the IC50 in the assay on T-cell worked out at 11800 nM. In addition, the result on Pyruvate kinase PKM [1] was inactive.

Regarding `C=C1C(=O)O[C@@H]2/C=C(\C)CC/C=C(\C)CC[C@@H]12` [COSTUNOLIDE], the IC50 in the assay on T-cell worked out at 2570 nM. Moreover, the EC50 at Pyruvate kinase PKM [2] worked out at 1510 nM.

As for `C=C1C(=O)O[C@@H]2C3=C(C)CC[C@@H](O)[C@]3(C)CC[C@@H]12`, the IC50 with T-cell worked out at 6170 nM. Besides, the outcome at Pyruvate kinase PKM [1] was inactive.

In the case of `C=C1C(=O)O[C@@H]2/C=C(\C)CC/C=C(/CO)CC[C@@H]12`, the IC50 with T-cell was 720 nM.

For the compound `C=C1C(=O)O[C@@H]2C[C@@H](C)CC[C@H]3O[C@@]3(C)CC[C@@H]12`, the IC50 with T-cell was found to be 1970 nM.

`C=C1C(=O)O[C@H]2[C@H]1CC[C@]1(C)O[C@@H]1CC[C@@]1(C)O[C@@H]21`: in the assay with T-cell, the IC50 came to 10600 nM. Also, at Pyruvate kinase PKM [1], the outcome was inactive.

On to `C=C1C(=O)O[C@@H]2/C=C(\C)CC[C@H]3O[C@@]3(C)CC[C@@H]12`, for which the IC50 in the assay on T-cell is 2630 nM.

Regarding `C=C1C(=O)O[C@@H]2/C=C(\C)CC/C=C(/C(F)F)CC[C@@H]12`, the half-maximal inhibitory concentration (IC50) in the assay on T-cell stood at 1210 nM.

With `C=C1C(=O)O[C@@H]2/C=C(\C)CC/C=C(/CF)CC[C@@H]12`, the IC50 in the assay on T-cell was determined as 1520 nM.

For the compound `C=C1C(=O)O[C@@H]2/C=C(\C)CC/C=C(/COC(=O)[C@@H](NC(=O)[C@@H](N)[C@@H](C)CC)C(C)C)CC[C@@H]12`, the IC50 in the assay with T-cell was found to be 1010 nM.

In the case of `C=C1C(=O)O[C@@H]2/C=C(\C)CC/C=C(/C(=O)OC)CC[C@@H]12`, the IC50 in the assay with T-cell was 850 nM.

With `C=C1C(=O)O[C@H]2[C@H]1CC[C@@H](C)CCC[C@@]1(C)O[C@@H]21`, in the assay with T-cell, the IC50 is 1420 nM.

`C/C1=C\[C@H]2OC(=O)/C(=C\c3ccccc3)[C@@H]2CC/C(C)=C/CC1`: in the assay on T-cell, the half-inhibitory concentration (IC50) was 16100 nM. Further, the result at Pyruvate kinase PKM [1] was inactive.

For `C=C1C(=O)O[C@@H]2/C=C(\C)CC/C=C(/CCl)CC[C@@H]12`, in the assay on T-cell, the IC50 was found to be 15200 nM. Also, the result at Pyruvate kinase PKM [1] was inactive.

Regarding `C=C1C(=O)O[C@@H]2/C=C(\C)CC/C=C(/C(=O)OCC)CC[C@@H]12`, the IC50 in the assay on T-cell stood at 1030 nM.

Consider `C=C1C(=O)O[C@@H]2/C=C(\C)CCC[C@H](C)CC[C@@H]12`, for which the IC50 with T-cell is 2890 nM.

As for `C=C1C(=O)O[C@@H]2[C@H]3C(C)=CC[C@@H](O)[C@]3(C)CC[C@@H]12` [SANTAMARIN], the IC50 with T-cell worked out at 5560 nM. Moreover, the outcome on Pyruvate kinase PKM [1] was inactive.

As for `C=C1C(=O)O[C@@H]2/C=C(\C)CC[C@H]3C(F)(F)[C@@]3(C)CC[C@@H]12`, the IC50 in the assay with T-cell worked out at 1230 nM.

With `C=C1C(=O)O[C@@H]2/C=C(\C)CC/C=C(/C(=O)O)CC[C@@H]12`, the IC50 in the assay on T-cell worked out at 10200 nM. Besides, the outcome at Pyruvate kinase PKM [1] was inactive.

As for `C=C1C(=O)O[C@@H]2/C=C(\C)CC/C=C(/C=O)CC[C@@H]12`, the IC50 in the assay with T-cell stood at 25900 nM. The outcome at Pyruvate kinase PKM [1] was inactive.

As a reminder, the IC50 is the concentration at which inhibition is half-maximal. For orientation: EC50 means the concentration at which the effect is half-maximal. Low values mean an effect from little substance, high ones a need for much substance.
